From ChEMBL document CHEMBL5303573, “Mapping human microbiome drug metabolism by gut bacteria and their genes” (Nature, 2019)

Experiments:
[1] = The drug is tested on Bifidobacterium longum subsp. Infantis strain: CCUG52486 for biotransformation. The drug concentrations were measured before and after a 12-h incubation by liquid-chromatography-coupled mass spectrometry (LC–MS); conditions: 2 µM
[2] = The drug is tested on Collinsella intestinalis strain: DSM13280 for biotransformation. The drug concentrations were measured before and after a 12-h incubation by liquid-chromatography-coupled mass spectrometry (LC–MS); conditions: 2 µM
[3] = The drug is tested on Bacteroides cellulosilyticus strain: DSM14838 for biotransformation. The drug concentrations were measured before and after a 12-h incubation by liquid-chromatography-coupled mass spectrometry (LC–MS); conditions: 2 µM
[4] = The drug is tested on Bacteroides dorei strain: DSM17855 for biotransformation. The drug concentrations were measured before and after a 12-h incubation by liquid-chromatography-coupled mass spectrometry (LC–MS); conditions: phocaeicola dorei, 2 µM
[5] = The drug is tested on Bacteroides fragilis strain: HMW610 for biotransformation. The drug concentrations were measured before and after a 12-h incubation by liquid-chromatography-coupled mass spectrometry (LC–MS); conditions: 2 µM
[6] = The drug is tested on Bacteroides pectinophilus strain: ATCC43243 for biotransformation. The drug concentrations were measured before and after a 12-h incubation by liquid-chromatography-coupled mass spectrometry (LC–MS); conditions: 2 µM
[7] = The drug is tested on Bacteroides sp. WH2 strain: WH2 for biotransformation. The drug concentrations were measured before and after a 12-h incubation by liquid-chromatography-coupled mass spectrometry (LC–MS); conditions: bacteroides sp. wh2, 12 h, 2 µM
[8] = The drug is tested on Anaerotruncus colihominis strain: DSM17241 for biotransformation. The drug concentrations were measured before and after a 12-h incubation by liquid-chromatography-coupled mass spectrometry (LC–MS); conditions: 2 µM
[9] = The drug is tested on Blautia luti strain: DSM14534 for biotransformation. The drug concentrations were measured before and after a 12-h incubation by liquid-chromatography-coupled mass spectrometry (LC–MS); assay type: ADME; design: dose 2 uM, timepoint 0 vs 12 hours; conditions: 2 µM
[10] = The drug is tested on Ruminococcus gnavus strain: ATCC29149 for biotransformation. The drug concentrations were measured before and after a 12-h incubation by liquid-chromatography-coupled mass spectrometry (LC–MS); conditions: mediterraneibacter gnavus, 2 µM
[11] = The drug is tested on Edwardsiella tarda strain: ATCC23685 for biotransformation. The drug concentrations were measured before and after a 12-h incubation by liquid-chromatography-coupled mass spectrometry (LC–MS); conditions: 2 µM
[12] = The drug is tested on Providencia stuartii strain: ATCC25827 for biotransformation. The drug concentrations were measured before and after a 12-h incubation by liquid-chromatography-coupled mass spectrometry (LC–MS); conditions: 2 µM
[13] = bacteroides intestinalis, 12 h, 2 µM
Description: The drug is tested on Bacteroides intestinalis strain: DSM17393 for biotransformation. The drug concentrations were measured before and after a 12-h incubation by liquid-chromatography-coupled mass spectrometry (LC–MS)

[14] = parabacteroides distasonis, 12 h, 2 µM
Description: The drug is tested on Parabacteroides distasonis strain: ATCC8503 for biotransformation. The drug concentrations were measured before and after a 12-h incubation by liquid-chromatography-coupled mass spectrometry (LC–MS)

[15] = segatella copri, 12 h, 2 µM
Description: The drug is tested on Prevotella copri strain: DSM18205 for biotransformation. The drug concentrations were measured before and after a 12-h incubation by liquid-chromatography-coupled mass spectrometry (LC–MS)

[16] = anaerostipes sp., 12 h, 2 µM
Description: The drug is tested on Anaerostipes sp. strain: fecal isolate for biotransformation. The drug concentrations were measured before and after a 12-h incubation by liquid-chromatography-coupled mass spectrometry (LC–MS)

[17] = bacteroides fragilis, 12 h, 2 µM
Description: The drug is tested on Bacteroides fragilis strain: NCTC 9343 for biotransformation. The drug concentrations were measured before and after a 12-h incubation by liquid-chromatography-coupled mass spectrometry (LC–MS)

[18] = bacteroides thetaiotaomicron, 12 h, 2 µM
Description: The drug is tested on Bacteroides thetaiotaomicron strain: 3731 for biotransformation. The drug concentrations were measured before and after a 12-h incubation by liquid-chromatography-coupled mass spectrometry (LC–MS)

[19] = The drug is tested on Clostridium sp. strain: fecal isolate for biotransformation. The drug concentrations were measured before and after a 12-h incubation by liquid-chromatography-coupled mass spectrometry (LC–MS); conditions: 2 µM
[20] = The drug is tested on Alistipes indistinctus strain: DSM22520 for biotransformation. The drug concentrations were measured before and after a 12-h incubation by liquid-chromatography-coupled mass spectrometry (LC–MS); conditions: 2 µM

| Compound | Bacterial Biotransformation [1] | Bacterial Biotransformation [2] | Bacterial Biotransformation [3] | Bacterial Biotransformation [4] | Bacterial Biotransformation [5] | Bacterial Biotransformation [6] | Bacterial Biotransformation [7] | Bacterial Biotransformation [8] | Bacterial Biotransformation [9] | Bacterial Biotransformation [10] | Bacterial Biotransformation [11] | Bacterial Biotransformation [12] | Bacterial Biotransformation [13] | Bacterial Biotransformation [14] | Bacterial Biotransformation [15] | Bacterial Biotransformation [16] | Bacterial Biotransformation [17] | Bacterial Biotransformation [18] | Bacterial Biotransformation [19] | Bacterial Biotransformation [20] |
| --- | --- | --- | --- | --- | --- | --- | --- | --- | --- | --- | --- | --- | --- | --- | --- | --- | --- | --- | --- | --- |
| CC(C)N(CCC(C(N)=O)(c1ccccc1)c1ccccn1)C(C)C.O=P(O)(O)O (centres undefined) [DISOPYRAMIDE PHOSPHATE] | Compound NOT metabolized | Compound NOT metabolized | Compound NOT metabolized | Compound NOT metabolized | Compound NOT metabolized | Compound NOT metabolized | Compound NOT metabolized | Compound NOT metabolized | Compound NOT metabolized | Compound NOT metabolized | Compound NOT metabolized | Compound NOT metabolized | Compound NOT metabolized | Compound NOT metabolized | Compound NOT metabolized | Compound NOT metabolized | – | – | – | – |
| CCOC(=O)[C@H](CCc1ccccc1)N[C@@H](C)C(=O)N1CCC[C@H]1C(=O)O.O=C(O)/C=C\C(=O)O [ENALAPRIL MALEATE] | Compound NOT metabolized | Compound NOT metabolized | Compound NOT metabolized | – | – | Compound NOT metabolized | Compound NOT metabolized | Compound NOT metabolized | Compound NOT metabolized | Compound NOT metabolized | Compound NOT metabolized | Compound NOT metabolized | Compound NOT metabolized | Compound NOT metabolized | Compound NOT metabolized | Compound NOT metabolized | Compound NOT metabolized | Compound NOT metabolized | – | – |
| CCC(C)n1ncn(-c2ccc(N3CCN(c4ccc(OCC5COC(Cn6cncn6)(c6ccc(Cl)cc6Cl)O5)cc4)CC3)cc2)c1=O (centres undefined) [ITRACONAZOLE] | Compound NOT metabolized | Compound NOT metabolized | Compound NOT metabolized | Compound NOT metabolized | Compound NOT metabolized | Compound NOT metabolized | Compound NOT metabolized | Compound NOT metabolized | Compound NOT metabolized | Compound NOT metabolized | Compound NOT metabolized | Compound NOT metabolized | Compound NOT metabolized | Compound NOT metabolized | Compound NOT metabolized | Compound NOT metabolized | Compound NOT metabolized | Compound NOT metabolized | Compound metabolized | – |
| CC(CCc1ccccc1)NCC(O)c1ccc(O)c(C(N)=O)c1 (centres undefined) [LABETALOL] | Compound NOT metabolized | Compound NOT metabolized | Compound NOT metabolized | Compound NOT metabolized | Compound NOT metabolized | Compound NOT metabolized | Compound NOT metabolized | – | Compound NOT metabolized | Compound NOT metabolized | Compound NOT metabolized | Compound NOT metabolized | Compound NOT metabolized | Compound NOT metabolized | Compound NOT metabolized | Compound NOT metabolized | Compound NOT metabolized | Compound NOT metabolized | Compound NOT metabolized | – |
| CCN(CC)CCNC(=O)c1cc(Cl)c(N)cc1OC [METOCLOPRAMIDE] | Compound NOT metabolized | Compound NOT metabolized | Compound NOT metabolized | Compound NOT metabolized | Compound NOT metabolized | Compound NOT metabolized | Compound NOT metabolized | Compound NOT metabolized | Compound NOT metabolized | Compound NOT metabolized | Compound NOT metabolized | Compound NOT metabolized | Compound NOT metabolized | Compound NOT metabolized | Compound NOT metabolized | Compound NOT metabolized | Compound NOT metabolized | Compound NOT metabolized | – | – |
| CN1CCN2c3ccccc3Cc3ccccc3C2C1 (centres undefined) [MIANSERIN] | Compound NOT metabolized | Compound NOT metabolized | Compound NOT metabolized | Compound NOT metabolized | Compound NOT metabolized | Compound NOT metabolized | Compound NOT metabolized | Compound NOT metabolized | Compound NOT metabolized | Compound NOT metabolized | Compound NOT metabolized | Compound NOT metabolized | Compound NOT metabolized | – | – | Compound NOT metabolized | Compound NOT metabolized | Compound NOT metabolized | – | – |
| CCN(CC)CCOC(=O)C(Cc1cccc2ccccc12)CC1CCCO1.O=C(O)C(=O)O (centres undefined) [NAFRONYL OXALATE] | Compound NOT metabolized | Compound NOT metabolized | Compound NOT metabolized | – | – | – | Compound NOT metabolized | Compound NOT metabolized | Compound NOT metabolized | Compound NOT metabolized | Compound NOT metabolized | Compound NOT metabolized | Compound NOT metabolized | Compound NOT metabolized | Compound metabolized | Compound NOT metabolized | Compound metabolized | Compound NOT metabolized | – | Compound NOT metabolized |
| C=CCN1CC[C@]23c4c5ccc(O)c4O[C@H]2C(=O)CC[C@@]3(O)[C@H]1C5 [NALOXONE] | Compound NOT metabolized | Compound NOT metabolized | Compound NOT metabolized | Compound metabolized | Compound metabolized | Compound NOT metabolized | Compound NOT metabolized | Compound NOT metabolized | Compound NOT metabolized | Compound NOT metabolized | Compound NOT metabolized | Compound NOT metabolized | – | Compound NOT metabolized | Compound metabolized | Compound NOT metabolized | Compound metabolized | Compound metabolized | Compound metabolized | – |
| COc1ccc2cc([C@H](C)C(=O)O)ccc2c1 [NAPROXEN] | Compound NOT metabolized | Compound NOT metabolized | Compound NOT metabolized | Compound NOT metabolized | Compound metabolized | Compound NOT metabolized | – | Compound NOT metabolized | Compound NOT metabolized | Compound NOT metabolized | Compound NOT metabolized | Compound NOT metabolized | Compound NOT metabolized | Compound NOT metabolized | – | Compound NOT metabolized | Compound NOT metabolized | Compound NOT metabolized | Compound NOT metabolized | – |
